Assay results as given in patent US20130317029A1 (PORTOLA PHARMACEUTICALS, INC., priority 2010, published 2013).

target: T1, full length active recombinant SYK enzyme (Homo sapiens, UniProt P43405); assay: Inhibition of Syk tyrosine phosphorylation activity (LANCE TR-FRET kinase assay); assay type: biochemical
T1 construct: full length active recombinant SYK enzyme (Millipore, Calif.); purchased Millipore
Text: This example illustrates methods for evaluating the compounds of the invention, along with results obtained for such assays. The in vitro and in vivo human Syk activities of the inventive compounds can be determined by various procedures known in the art, such as a test for their ability to inhibit the activity of human plasma Syk. […] The IC50 value is the concentration (in nM) of the compound required to provide 50% inhibition of human Syk proteolytic activity.
Potency of candidate molecules for inhibiting Syk tyrosine phosphorylation activity is assessed by measuring the ability of a test compound to inhibit Syk-mediated tyrosine phosphorylation of a Syk-specific substrate.
SYK tyrosine phosphorylation activity is measured using the LANCE™ Technology developed by Perkin Elmer Life and Analytical Sciences (Boston, Mass.). LANCE™ refers to homogeneous time resolved fluorometry applications using techniques such as time-resolved fluorescence resonance energy transfer assay (TR-FRET) (see generally for procedures in Perkin Elmer Application Note—How to Optimize a Tyrosine Kinase Assay Using Time Resolved Fluorescence-Based LANCE Detection, wwww.perkinelmer.com/lifesciences). The assay principle involves detection of a phosphorylated substrate using energy transfer from a phosphospecific europium-labeled antibody to streptavidin-allophycocyanin as an acceptor.
To test the ability of candidate molecules to inhibit SYK tyrosine phosphorylation activity, molecules are reconstituted in 30% DMSO and serially diluted 1:3 with the final dilution containing DMSO in the absence of the candidate molecule. The final DMSO concentration in the assay is 3%. Kinase assays are performed as a two part reaction. The first reaction is a kinase reaction and which comprises of a candidate molecule, full length active recombinant SYK enzyme (Millipore, Calif.) and biotin-labeled SYK-specific substrate biotin-[…]-OH. The second reaction involves termination of the kinase reaction and the simultaneous addition of the detection reagents-europium-labeled anti-phosphotyrosine reagent (Eu-W1024-PY100, Perkin Elmer, Boston, Mass.) and Streptavidin-Allophycocyanin detection reagent (SA-APC, Prozyme, Calif.). The kinase reaction is performed in a black U-bottom 96-well microtitre plate. The final reaction volume is 50 μL and contains a final concentration of 1 nM active SYK enzyme, 550 nM SYK-substrate, and 100 μM ATP diluted in a buffer containing 50 mM Tris pH 7.5, 5 mM MgCl2, and 1 mM DTT. The reaction is allowed to proceed for 1 hour at room temperature. The quench buffer contains 100 mM Tris pH 7.5, 300 mM NaCl2, 20 mM EDTA, 0.02% Brij35, and 0.5% BSA. The detection reagents are added to the reaction mixture at the following dilutions-1:500 for Eu-W1024-PY100 and 1:250 for SA-APC. The kinase reaction is terminated by the addition of 50 μL quench buffer containing the detection reagents. The detection is allowed to proceed for 1 hr at room temperature. Detection of the phosphorlated substrate in the absence and presence of inhibitors is measured in the TR-FRET instrument, Analyst HT (Molecular Probes, Sunnyvale, Calif.) and the condition for measurements are set up using CriterionHost Release 2.0 (Molecular Probes, Sunnyvale, Calif.). The settings used are a follows: excitation 360 nm, emission 665-7.5 nm, beam splitter 350 nm 50/50, flash 100 pulses, delay 60 us, integration 400 us, z-height 2 mm. Inhibition of SYK-tyrosine kinase activity is calculated as the maximum response observed in the presence of inhibitor, compared to that in the absence of inhibitor. IC50s were derived by non-linear regression analysis.

Row | IC50 [µM] | Structure (SMILES)
1 | 0.1 to 1 | Cc1cc(C)cc(Nc2nc(Nc3ccc(S(N)(=O)=O)cc3)[nH]c(=O)c2C(N)=O)c1 [Example 61, 4-(4-(3,5-dimethylphenylamino)-5-carboxamide-6-oxo-1,6-dihydropyrimidin-2-ylamino)benzenesulfonamide]
2 | > 1 | CC(=O)N1CCN(c2ccc(Nc3nc(NC4CC4)c(C(N)=O)c(=O)[nH]3)cc2)CC1 [Example 62, 2-(4-(4-acetylpiperazin-1-yl)phenylamino)-4-(cyclopropylamino)-6-oxo-1,6-dihydropyrimidine-5-carboxamide]
3 | 0.1 to 1 | Cc1cccc(Nc2nc(Nc3ccc(S(N)(=O)=O)cc3)nc(O)c2C(N)=O)c1 [Example 63, 4-(4-(3-methylphenylamino)-5-carboxamide-6-oxo-1,6-dihydropyrimidin-2-ylamino)benzenesulfonamide]
4 | > 1 | CC(=O)N1CCN(c2ccc(Nc3nc(O)c(C(N)=O)c(Nc4cccc(C)c4)n3)cc2)CC1 [Example 64, 4-(m-toluidino)-2-(4-(4-acetylpiperazin-1-yl)phenylamino)-6-hydroxypyrimidine-5-carboxamide]
5 | 0.01 to 0.1 | COc1nc(NC2CCCCC2N)nc(Nc2cc(C)cc(C)c2)c1C(N)=O (stereo not shown) [Example 65, 2-(2-aminocyclohexylamino)-4-(3,5-dimethylphenylamino)-6-methoxypyrimidine-5-carboxamide]
6 | 0.1 to 1 | COc1nc(N[C@H](C)C(N)=O)nc(Nc2cc(C)cc(C)c2)c1C(N)=O [Example 66, (R)-2-(1-amino-1-oxopropan-2-ylamino)-4-(3,5-dimethylphenylamino)-6-methoxypyrimidine-5-carboxamide]
7 | 0.1 to 1 | COc1nc(N[C@H](CC(C)C)C(N)=O)nc(Nc2cc(C)cc(C)c2)c1C(N)=O [Example 67, (R)-2-(1-amino-4-methyl-1-oxopentan-2-ylamino)-4-(3,5-dimethylphenylamino)-6-methoxypyrimidine-5-carboxamide]
8 | 0.1 to 1 | COc1nc(NC[C@H](C)N)nc(Nc2cc(C)cc(C)c2)c1C(N)=O [Example 68, (S)-2-(2-aminopropylamino)-4-(3,5-dimethylphenylamino)-6-methoxypyrimidine-5-carboxamide]
9 | > 1 | COc1nc(Nc2ccc(N3CCN(C(C)=O)CC3)cc2)nc(NC2CC2)c1C(N)=O [Example 69, 2-(4-(4-acetylpiperazin-1-yl)phenylamino)-4-(cyclopropylamino)-6-methoxypyrimidine-5-carboxamide]
10 | > 1 | COc1nc(Nc2ccc(N3CCOCC3)cc2)nc(Nc2cccc(C)c2)c1C(N)=O [Example 70, 4-(m-toluidino)-6-methoxy-2-(4-morpholinophenylamino)pyrimidine-5-carboxamide]
11 | 0.1 to 1 | COc1nc(N[C@@H](C(N)=O)c2ccccc2)nc(Nc2cccc(C)c2)c1C(N)=O [Example 71, (R)-4-(m-toluidino)-2-(2-amino-2-oxo-1-phenylethylamino)-6-methoxypyrimidine-5-carboxamide]
12 | 0.1 to 1 | COc1nc(N[C@@H](C(N)=O)c2ccccc2)nc(Nc2cc(C)cc(C)c2)c1C(N)=O [Example 72, (R)-2-(2-amino-2-oxo-1-phenylethylamino)-4-(3,5-dimethylphenylamino)-6-methoxypyrimidine-5-carboxamide]
13 | > 1 | COc1nc(Nc2ccc(N3CCOCC3)cc2)nc(NC2CC2)c1C(N)=O [Example 73, 4-(cyclopropylamino)-6-methoxy-2-(4-morpholinophenylamino)pyrimidine-5-carboxamide]
14 | > 1 | COc1nc(Nc2ccc(N3CCN(C(C)=O)CC3)cc2)nc(Nc2cccc(C)c2)c1C(N)=O [Example 74, 4-(m-toluidino)-2-(4-(4-acetylpiperazin-1-yl)phenylamino)-6-methoxypyrimidine-5-carboxamide]
15 | > 1 | CCNc1nc(Nc2cccc(C)c2)c(C(N)=O)c(OCCO)n1 [Example 75, 4-(m-toluidino)-2-(ethylamino)-6-(2-hydroxyethoxy)pyrimidine-5-carboxamide]
16 | 0.001 to 0.01 | CC[C@@H](Nc1nc(Nc2ccc3c(c2)OCO3)c(C(N)=O)c(=O)[nH]1)C(N)=O [Example 76, (R)-2-(1-amino-1-oxobutan-2-ylamino)-4-(benzo[d][1,3]dioxol-5-ylamino)-6-oxo-1,6-dihydropyrimidine-5-carboxamide]
17 | 0.001 to 0.01 | COc1cccc(Nc2nc(N[C@H](CC(C)C)C(N)=O)[nH]c(=O)c2C(N)=O)c1 [Example 77, (R)-2-(1-amino-4-methyl-1-oxopentan-2-ylamino)-4-(3-methoxyphenylamino)-6-oxo-1,6-dihydropyrimidine-5-carboxamide]
18 | 0.001 to 0.01 | CC(C)C[C@@H](Nc1nc(Nc2ccc3c(c2)OCCO3)c(C(N)=O)c(=O)[nH]1)C(N)=O [Example 78, (R)-2-(1-amino-4-methyl-1-oxopentan-2-ylamino)-4-(2,3-dihydrobenzo[b][1,4]dioxin-6-ylamino)-6-oxo-1,6-dihydropyrimidine-5-carboxamide]
19 | < 0.001 | CC(C)C[C@@H](Nc1nc(Nc2ccc3c(c2)OCO3)c(C(N)=O)c(=O)[nH]1)C(N)=O [Example 79, (R)-2-(1-amino-4-methyl-1-oxopentan-2-ylamino)-4-(benzo[d][1,3]-dioxol-5-ylamino)-6-oxo-1,6-dihydropyrimidine-5-carboxamide]
20 | 0.001 to 0.01 | CC(C)C[C@@H](Nc1nc(Nc2cccc(-c3ncccc3F)c2)c(C(N)=O)c(=O)[nH]1)C(N)=O [Example 80, (R)-2-(1-amino-4-methyl-1-oxopentan-2-ylamino)-6-oxo-4-(3-(3-fluoropyridin-2-yl)phenylamino)-1,6-dihydropyrimidine-5-carboxamide]
21 | 0.001 to 0.01 | CC[C@@H](Nc1nc(Nc2cccc(-c3ncccc3F)c2)c(C(N)=O)c(=O)[nH]1)C(N)=O [Example 81, (R)-2-(1-amino-1-oxobutan-2-ylamino)-6-oxo-4-(3-(3-fluoropyridin-2-yl)phenylamino)-1,6-dihydropyrimidine-5-carboxamide]
22 | < 0.001 | COc1ccc(Nc2nc(N[C@H](CC(C)C)C(N)=O)[nH]c(=O)c2C(N)=O)cc1OC [Example 83, (R)-2-(1-amino-4-methyl-1-oxopentan-2-ylamino)-4-(3,4-dimethoxyphenylamino)-6-oxo-1,6-dihydropyrimidine-5-carboxamide]
23 | 0.001 to 0.01 | CC[C@@H](Nc1nc(Nc2ccc3c(c2)OCCO3)c(C(N)=O)c(=O)[nH]1)C(N)=O [Example 86, (R)-2-(1-amino-1-oxobutan-2-ylamino)-4-(2,3-dihydrobenzo[b][1,4]dioxin-6-ylamino)-6-oxo-1,6-dihydropyrimidine-5-carboxamide]
24 | 0.001 to 0.01 | CC(C)C[C@@H](Nc1nc(Nc2cccc(OC(F)F)c2)c(C(N)=O)c(=O)[nH]1)C(N)=O [Example 87, (R)-2-(1-amino-4-methyl-1-oxopentan-2-ylamino)-4-(3-(difluoromethoxy)phenylamino)-6-oxo-1,6-dihydropyrimidine-5-carboxamide]
25 | 0.001 to 0.01 | CC[C@@H](Nc1nc(Nc2cccc(OC(F)F)c2)c(C(N)=O)c(=O)[nH]1)C(N)=O [Example 88, (R)-2-(1-amino-1-oxobutan-2-ylamino)-4-(3-(difluoromethoxy)phenylamino)-6-oxo-1,6-dihydropyrimidine-5-carboxamide]
